Results published in patent US10273313B2, “Multimeric mannosides, a process for preparing the same and their uses as a drug” (CENTRE NATIONAL DE LA RECHERCHE SCIENTIFIQUE, priority 2012, dated 2019).
Converted amounts (≈) assume the structure as drawn. Like-named read-outs stand apart in the source and are kept apart here.

Key:
[1] = system: primary human peripheral venous blood monocyte-derived macrophages; test: Macrophage-mediated phagocytosis of aged PMN cells; assay type: cell-based; conditions: 500 nM
Text: To estimate the influence of mannose-based inhibitors on possible inhibition of phagocytosis we used primary human peripheral venous blood monocyte-derived macrophages and estimated their ability to phagocyte autologous and allogenic human blood-derived PMN cells, as described by us previous (Bilyy, R. O. et al. (2012) J Biol Chem 287, 496-503).
Primary human PMN and MoMa from healthy volunteers were used. Monocytes were isolated from peripheral blood by LymphoPrep® gradient according to manufacture's recommendations for isolation of PBMC fraction. Plastic-attached cells of PBMC fraction were then cultured for 7 days in the presence of GM-CSF (100 U/ml) and autologous serum (added at days 1, 3 and 5) to generate MoMa. After 7 days of differentiation, the MoMa population was tested. They typically contain >95% CD11b+ cells, >90% CD14+ cells and >85% CD89+ cells. Phagocytosis was assessed by pre-incubation of PMN (freshly isolated or aged for 24 h) with mannose-based inhibitor for 30 min at 37° C. at Ringer buffer. Cells were thoroughly washed three times with Ringer solution and incubated with human MoMa for 2 hours. Uningested PMN were analyzed by flow cytometry (for this reason cells were pre-stained with CFSE (Rodel, F. et al. (2005) Strahlentherapie and Onkologie: Organ der Deutschen Rontgengesellschaft . . . [et al] 181, 456-462)) or in the hemocytometric chamber using Zeiss AxioImager A1 microscope. The percentage of prey cells that had been bound to or taken up by MoMa (% of phagocytosis) was calculated.

lectin domain of FimH = target: T1, lectin domain of FimH (Escherichia coli, UniProt P08191); test: Surface plasmon resonance solution competition assay; assay type: binding; conditions: solution affinity, inhibition of FimH binding to immobilized mannoside, CM5 chip
T1 construct: The lectin domain of FimH was expressed as described previously and purified at pH 4.0; made in house
T1 sequence (P08191 22-179): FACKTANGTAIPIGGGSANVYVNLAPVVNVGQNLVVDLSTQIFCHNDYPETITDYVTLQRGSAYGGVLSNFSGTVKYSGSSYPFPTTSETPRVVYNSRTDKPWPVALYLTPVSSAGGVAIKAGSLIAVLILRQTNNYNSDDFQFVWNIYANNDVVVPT
Protocol: The affinity of the compounds was first evaluated and then measured in a surface plasmon resonance solution competition assay. The lectin domain of FimH was expressed as described previously and purified at pH 4.0 in 50 mM HCOOH on a SPFF (sulfopropyl fast flow) ion exchange column (GE Healthcare). A CM5 sensor chip (Biacore, GE Healthcare) has been coated with a layer of amino-functionalized monovalent heptyl mannoside to 60 RU (response units) and the kinetics of FimH binding to the sensor chip has been determined. All data collection have been performed in HBS buffer complemented with 3 mM EDTA and 0.01% Tween20. Regeneration was done with a single 10 s injection of 100 mM NaOH in water.
The solution affinity provided by the Biacore software uses the equation (B−A−Kd)/2+(0.25*(A+B+Kd)^2−A*B)^0.5, with B presenting the uninhibited concentration of FimH, and A the variable compound concentration.

UTI89 E. coli = test: Inhibition of haemagglutination (Example 19); assay type: cell-based, Escherichia coli; conditions: two-fold dilution from 1 mM
Protocol: Interaction of E. coli FimH adhesins with the glycocalyx of guinea pig erythrocytes forms a cross-linked network into the wells. Glycoconjugates added in a two-fold dilution series prevents the agglutination reaction. The inhibition titer is defined as the lowest concentration of the glycoconjugate at which haemagglutination is still inhibited. UTI89 E. coli were grown statically overnight in LB at 37° C., washed three times in ice-cold phosphate-buffered saline and resolubilized. A two-fold dilution of glycoconjugates was prepared in 25 μL 20 mM HEPES pH 7.4 with 150 mM NaCl, starting from 1 mM as the highest concentration. The bacterial solution (25 μL) was added to the two-fold dilution series of the compound. Finally 50 μl of guinea pig red blood cells, washed in buffer and diluted to 5%, were added to a final 100 μL and left on ice for 30 min. before read-out. Due to serial dilutions, the maximal error is ±one well, or a factor two (FIG. 2).

bladder cell line 5637 = test: Anti-adhesives for bacterial bladder cell binding; assay type: cell-based; conditions: ten-fold dilution series
Protocol: The anti-adhesive capacities of the HM-derivatized cyclodextrins 1-4 were tested in vitro on the bladder cell line 5637, in a procedure analogous as previously described (Wellens, A. et al., PLoS ONE 3: e2040 (2008)). The CD conjugates 1-4 were diluted in a ten-fold series. The minimum inhibitory concentrations (MIC) indicate the concentrations of sugars at which we see some inhibition of binding of FimH to the bladder cells, they do however not indicate complete inhibition. MIC values for the CD-conjugates 1-4 followed a similar trend as the inhibitory concentrations recorded in HIA.
The anti-adhesive capacities of the n-heptyl α-D-mannoside-derivatized cyclodextrins 1-4 were tested in vitro on the bladder cell line 5637, in a procedure analogous to as described in (Wellens, A. et al., PLoS ONE 3: e2040 (2008)). The ligands have been diluted 10-fold and this is also the resolution limit of these tests.

[2] = system: type-1 piliated clinical E. coli isolate UTI89; test: Haemagglutination inhibition assay (HIA), guinea pig erythrocytes; assay type: cell-based, Escherichia coli; conditions: read-out: Minimal inhibitory concentration (MIC) on haemagglutination
Protocol: Haemagglutination is observed as the red blood cells being held in suspension through the formation of a space-filling cross-linked network with the fimbriated bacteria.
The UIT89 clinical isolate was grown statically 37° C. for 48 hours in LB medium and analysed for haemagglutination of guinea pig red blood cells. Both bacteria and red blood cells (RBCs) were washed 3 times in ice-cold PBS (17 mM K/NaH2PO4, 150 mM NaCl). PBS was used for all dilutions. 96-well round-bottom microtiter plates were used for the dilutions. The titer for agglutination was determined in a 2-fold dilution series in PBS of the bacteria in a volume of 25 μL. Well 1 is a negative control without bacteria but 25 μL PBS. 25 μL PBS and 50 μL 5% RBCs were added to a final 100 μL volume. Upon 1 hour at 4° C., the titer was determined as the lowest concentration of bacteria that led to haemagglutination.
A bacterial concentration of twice the determined haemagglutination titer was kept constant in the haemagglutination inhibition assays. First, a 2-fold dilution series of the inhibitory compounds was performed in 25 μL PBS. Instead, in well 1 only 25 μL PBS was added as a negative control. 25 μL of the bacterial solution and 50 μl of 5% red blood cells were added to reach a final volume of 100 μL.

[3] = system: E. coli strain UTI89 in the bladder of C3H/HeN mice; test: In vivo inhibition in the murine cystitis model (instillation with UTI89)
Protocol: In vivo inhibition was evaluated by instilling 1-4 together with the UTI89 strain via a catheter in the bladder of C3H/HeN mice. […] A group of ten animals was used for each concentration of antagonists. […] The animals were sacrificed at a 6 h post infection time.
A murine model of urinary tract infection was used to test the ability of the compounds to inhibit the colonization of UTI89 in the bladder [Hung C. S.; Dodson, K. W., Hultgren S. J. Nat. Protoc. 2009, 4, 1230-1243 and Wellens A.; Garofalo C.; Nguyen H.; Van Gerven N.; Slättegård R.; Hernalsteens, J.-P.; Wyns, L.; Oscarson, S.; De Greve H.; Hultgren S. J.; Bouckaert, J. PLoS ONE 2008, 3, e2040]. The solution with high concentration of compounds was added to the resuspension of UTI89 before given to the mice. The eight-week old Female C3H/HeN mice (Harlan, Horst, The Netherlands) were anesthetized and infected via transurethral catheterization of 10^7 CFU UTI89 in solution in PBS, or in PBS with the compound in the mentioned concentration. The mice were sacrificed at 24 hours post infection and the bladders were harvested, homogenized and resuspended in PBS. The serial dilutions were spot on LB medium agar plates. The bacterial load was determined by counting the CFU recovered from the bladder. The animal experiments were approved by the Ethical Committer for Animal Experiments of Vrije Universiteit Brussel and complied with all relevant national legislation and institutional policies. The Mann-Whitney test was applied for the comparison of the data obtained from the untreated group and inhibition group in GraphPad Prism version 5.1 and two tailed P value were shown (GraphPad software).
A limited number of papers described the in vivo efficiency of anti-adhesive mannosides to treat UTIs.

[4] = target: T2, monovalent lectin domain of FimH (Escherichia coli, UniProt P08191); assay type: binding; conditions: for Kd / Molar ratio n meas / ΔG° / ΔH° / ΔS°: direct titration; for Kd: read-out: Kd
T2 construct: with the monovalent lectin domain of FimH were measured using isothermal calorimetry (ITC)
T2 sequence (P08191 22-179): as above

[5] = system: AIEC strain LF82 adhesion to T84 intestinal epithelial cells; test: Adhesion assay on T84 cells with thiazolylaminomannosides (Example 22.3); assay type: cell-based, Escherichia coli
Protocol: T84 Intestinal Epithelial cells (overexpressing the receptor CEACAM6) were beforehand incubated for 1 h with the synthetic thiazolylaminomannosides 6-20 (examples 3-17) at different concentrations. Each compound was tested four times at concentrations of 0.1, 1, 10 and 100 μM.
The cells were then infected in the presence of inhibitory compounds by the AIEC strain of reference LF82 for 3 hours at a multiplicity of infection of 10 bacteria to a cell. After 3 h of incubation, the monolayer was washed and the number of AIEC bacteria associated with cells was counted. The level of adhesion of AIEC LF82 strain in the presence of inhibitors (residual adhesion) was expressed relatively to the level of adherence in the absence of any treatment (considered 100%) (FIG. 10).

[6] = system: AIEC LF82 strain adhesion to T84 intestinal epithelial cells; test: Adhesion assay on T84 cells, cells incubated 1 h with mannoside prior infection (Example 21.1); assay type: cell-based, Escherichia coli
Protocol: E. coli strain LF82 was isolated from a chronic ileal lesion of a patient with Crohn's disease (CD). Bacteria were grown routinely in Luria-Bertani (LB) broth overnight at 37° C. Intestinal epithelial cells T84 derived from colonic adenocarcinoma were maintained in an atmosphere containing 5% CO2 at 37° C. in DMEM/F12 (50/50) medium supplemented with 10% (v/v) heat-inactivated fetal calf serum (FCS), 1% L-glutamine, 100 000 U·l^−1 penicillin, 100 mg·l^−1 streptomycin, 25 μg·l^−1 amphotericin B.
T84 cells were seeded in 48-well tissue culture plates with 1.5×10^5 cells per well and grown for 48 h. Cells were incubated 1 h prior infection with each mannoside at a final concentration of 100; 10; 1 or 0.1 μM in complete medium without antibiotics, containing heat inactivated fetal calf serum (FCS) and were next infected with AIEC LF82 strain at a multiplicity of infection (MOI) of 10 bacteria per cell. After a 3 h incubation period at 37° C., the monolayers were washed in phosphate-buffered saline (PBS; pH 7.2). The epithelial cells were then lysed with 1% Triton X-100 in deionized water. Samples were diluted and plated onto Luria Bertani agar plates to determine the number of cfu recovered from the lysed monolayers.
Results were expressed in percentage of residual adhesion, considering adhesion level of AIEC LF82 without mannoside treatment as 100%.

[7] = excluding spiky heat signals (2)

CO[C@H]1O[C@H](CO)[C@@H](O)[C@H](O)[C@@H]1O [αMM, α-D-methyl mannoside]
Phagocytosis rate [1]: significantly decreased phagocytosis rate

COc1ccn([C@H]2OC(CO)[C@@H](O)C(O)C2O)c(=S)n1 (stereo partly drawn) [NM30, 1-(2,3,4,6-tetrahydroxy-α-D-mannopyranosyl)-4-methoxypyrimidine-2(1H)-(thi)one]
Kd (lectin domain of FimH): 0.92 µM
Inhibitory potency in haemagglutination (FIG. 2) (UTI89 E. coli): non-effectiveness

Nc1ccn([C@H]2OC(CO)[C@@H](O)C(O)C2O)c(=S)n1 (stereo partly drawn) [NM34, 4-amino-1-(2,3,4,6-tetrahydroxy-α-D-mannopyranosyl)pyrimidine-2(1H)-(thi)one]
Kd (lectin domain of FimH): 2.37 µM
Inhibitory potency in haemagglutination (FIG. 2) (UTI89 E. coli): non-effectiveness

OCC1OC(OCCCCCCCOCc2cn(CCOCCOCCOCc3cn(CC4OC5OC6C(CO)OC(OC7C(CO)OC(OC8C(CO)OC(OC9C(CO)OC(OC%10C(CO)OC(OC%11C(CO)OC(OC4C(O)C5O)C(O)C%11O)C(O)C%10O)C(O)C9O)C(O)C8O)C(O)C7O)C(O)C6O)nn3)nn2)C(O)C(O)C1O (stereo not shown) [Compound 3]
MIC, anti-adhesive potency on bladder cell line 5637 (bladder cell line 5637): >400 µM
MIC ([2]; UTI89 1.2 10^9 CFU/ml): 200 µM (≈ 341 µg/mL)
MIC ([2]; UTI89 1.4 10^8 CFU/ml): 50 µM (≈ 85.3 µg/mL)
MIC ([2]; UTI89 7 10^7 CFU/ml): 31 µM (≈ 52.9 µg/mL)
Inhibition efficiency at decreased concentration ([3]; 0.1 mM): important drop in the inhibition efficiency
Reduction of the level of infection ([3]; instillation of 1 mM with UTI89): 10 fold
Affinity of FimH for the ligand (in words) ([4]; ITC): micromolar range
Kd ([4]; data processed to exclude spiky heat signals (2)): 1.95 µM
Kd ([4]; data processed to include the whole binding event (1)): 4.57 µM
Molar ratio n meas [4, 7]: 0.57
ΔG° [4, 7]: -7.7 kcal/mol
ΔH° [4, 7]: -4.8 kcal/mol
ΔS° [4, 7]: 9.9 cal/mol/deg
Molar ratio n meas ([4]; whole binding event (1)): 0.45
ΔG° ([4]; whole binding event (1)): -7.2 kcal/mol
ΔH° ([4]; whole binding event (1)): -10.0 kcal/mol
ΔS° ([4]; whole binding event (1)): −9.6 cal/mol/deg

O=C[C@@H](O)[C@@H](O)[C@H](O)[C@H](O)CO [mannose, reference compound]
Concentration necessary to achieve a similar percentage of residual adhesion (decrease greater than 95%) [5]: 100 mM
Decrease of adherence to intestinal epithelial cells ([5]; 100 μM): about 25%
Concentration reaching around 75% of binding inhibition (25% line) [6]: 50000 µM
